One compound from patent US20030148259A1, “Method of identifying insulin secretion stimulating compounds, and the use of such compounds in treating insulin-secretion related disorders” (priority 2002, published 2003) can be followed below.

Each structure is given as a SMILES string.

The test system of assay [1] is INS-1E cells. Kind of assay: Insulin release from INS-1E cells (insulin ELISA). The format is cell-based, rat. As to the method:
Glucose-responsive clonal insulinoma cells (INS-1E) were cultured in RPMI-1640 medium supplemented with FBS (5%, v/v), penicillin (50 i.u. /ml), streptomycin (50 μg/ml), 2-mercaptoethanol (50 μM), HEPES (10 mM) and sodium pyruvate (1 mM) (Maechler, P. et al., IUBMB.Life 50, 27-31(2000). Medium was changed every other day.
INS-1E cells (200,000/ well) were seeded in 24-well plates and cultured for 6-7 days before using them for insulin release assay. On the day of experiment, cells were incubated in RPMI without glucose for 2 hours. Cells attached to the wells were then washed three times with warm (37° C.) medium (KRBH) containing (in mM): NaCl 140, NaHCO3 2, KCl 3.6, NaH2PO4 0.5, MgSO4 0.5, HEPES 10, CaCl2, 1.5, BSA 0.1% and incubated for 30 minutes at 37°. Cells were then incubated with 500 μl of the test solutions, by adding solution to one well at a time, every 20 sec. After one hour of incubation, 200 μl of supernatant was transferred to Eppendorf tubes, again one well at a time, every 20 sec. The collected materials were then centrifuged and supernatants were used for insulin ELISA.

A further assay has as its system β-cells. Kind of assay: Screening for CICR-active agents by periodic amplification of Ca2+ signals in single β-cells (fura-2 microfluorometry). The format is cell-based, mouse.
Assay [2] relates to INS-1E cells. Nature of the assay: Measurement of cAMP content. The settings on record: caffeine 0.25-3 mM. The format is cell-based, rat. The protocol:
INS-1E cells (20000 per well) were cultured for three days in 24 well plates. On the day of the experiments cells were washed and incubated for 30 min at 37° C. in the KRBH buffer containing 3 mM glucose. Cells were then washed again and solutions containing 11.2 mM glucose and test substances were added. After 10 min, incubations were terminated by removing the medium and precipitating cell protein in 80% ice-cold ethanol. Cells were then scraped and all contents of the wells were transferred to tubes. After centrifugation at 14,000 rpm for five min, the supernatants were collected and freeze-dried over-night. The cAMP content in each sample was determined with a radio ligand-binding assay using a bovine heart cAMP-binding protein as described by Pyne, N. J. and Tolan, D., Pyne, S. in Biochem.J 328 (Pt 2), 689-694 (1997).

Assay [3] relates to INS-1E cells. Nature of the assay: Confocal microscopy imaging of [Ca2+]i in fluo-3 loaded cells. Particulars: caffeine 5 mM, FIG. 10 upper panel. It counts as cell-based, rat. The protocol:
INS-1E cells were incubated in medium containing 5 mM glucose and 5 μM fluo-3 AM for 30 minutes followed by 10 min in medium without fluo-3Cover slips were mounted in a superfusion chamber, which was superfused with physiological solution at 3 ml/min. A three-way solenoid valve system allowed for rapid exchange of solutions. The dead space of the system (from valve inlet to chamber) was -0.5 ml. The flow was increased to 6 ml/min 15 s prior to switching from control solution to experimental solutions and reduced back to 3 ml/min after return to normal solution. [Ca^2+]1 were recorded with a BioRad laser scanning confocal system (BioRad MRC 1024) attached to a Nikon Diaphot 200 inverted microscope equipped with Nikon Plan Apo 60×1.4 NA oil immersion objective. Fluo-3 was excited at 488 nm (15 mW krypton-argon mixed gas laser, intensity attenuated to 3%) and the emitted light was collected through a 522 nm narrow band filter. Images were obtained with the iris closed to the minimum size that was compatible with good image quality. For each image, 3× Kalman averaging was used. Images were stored and converted to pseudo-color images using Scion Image software (Scion Corporation, Maryland).
Ratios were calculated using the initial fluorescence F0, and the observed fluorescence F using the equation R=F/F0, and these ratios were subsequently converted into [Ca^2+]i using the equation: [Ca^2+]i=RxKD/((KD/resting [Ca^2+]i)−R). […] Resting [Ca^2+]i in these cells under the conditions of experiment was 35 nM. All experiments were carried out at room temperature (25° C.).

For the next assay, the system named is mouse islets. Kind of assay: Insulin release from perifused islets (radio immunoassay). It counts as cell-based. The settings on record: 11.2 mM glucose. As to the method: Normal lean mice (BALB/c, Bomholtgard, Ry, Denmark) weighing 20-25 g were starved overnight and islets isolated by collagenase digestion and dextran purification method (Shi, C. L., Cell Transplant. 6, 33-37 (1997)). Islets were then cultured overnight in RPMI 1640 medium containing 10% FBS, 11.2 mM glucose, 60 i.u./ml penicillin and 60 μg/ml gentamicin, in a water-saturated atmosphere of air and 5% CO2.
Groups of 50 islets were transferred to a perifusion chamber housed in an infant incubator at 37° C. They were perifused at a rate of 1 ml/ min with Krebs-Ringer bicarbonate buffer supplemented with 20 mM HEPES, 0.1% BSA, glucose and drugs as required. The buffer was continuously gassed with 95% 02 and 5% CO2. The islets were perifused for 30 min with this medium containing 2 mM glucose, followed by a 40-min stimulation with 11.2 mM glucose alone (control), or 11.2 mM glucose plus drugs. During the last five minutes of perifusion with 2 mM glucose, three samples of effluent were collected to measure basal rate of insulin secretion. After switching to the 11.2 mM glucose the effluent was sampled every minute for the first five minutes and then at the intervals of 5 minutes. The average rate of insulin secretion (ng/min/50 islets) was calculated by integrating individual perifusion profile. Insulin was measured by radio immunoassay using crystalline mouse insulin as standard (Shi, C. L. cited above).

On to `Cn1c(=O)c2c(ncn2C)n(C)c1=O` [caffeine], for which the “concentration giving maximal stimulation of secretion” value in the assay with INS-1E cells [1] (FIG. 9B) lay within 0.25 to 0.75 mM. In addition, the insulin secretion result in the assay with INS-1E cells [1] (caffeine 0.25 mM, FIG. 9B) is “near-maximal stimulation of insulin secretion”; in the assay on INS-1E cells [1] (caffeine 0.75 mM, KATP channel bypassed by diazoxide and KCl, FIG. 8B), “Stimulation of insulin secretion by caffeine (0.75 mM) was observed”; in the assay with INS-1E cells [1] (caffeine 2.5 mM, 3 mM glucose, 1 hr, FIG. 8A) it was “did not alter insulin secretion”; in the assay on INS-1E cells [1] (methylxanthine 2.5 mM, 11.2 mM glucose, 1 hr, FIG. 8A/8C) it was “stimulated secretion”. The insulin secretion rate with INS-1E cells [1] (caffeine 0.75 mM, without ryanodine) turned out to be 328±22 ng/10^6 cell/hr; with mouse islets (40-min stimulation), 5.06±1.17 ng/min/50 islets. The “periodic amplified Ca2+ release in β-cells (summary of screening)” value with β-cells was “elicit periodic amplified Ca^2+ release”. In addition, in the assay on β-cells (Example 6, FIG. 3: 10 mM glucose), the “periodic amplification of Ca2+ signals (CICR)” value was “gave rise to periodic amplifications of Ca^2+ signals”. The “effect on cAMP content” value in the assay with INS-1E cells [2] is reported as “did not increase cAMP content”. Moreover, the “change in [Ca2+]i” value in the assay on INS-1E cells [3] is “transient increase on [Ca^2+]i”. In the assay with mouse islets (2.5 mM caffeine, 6 μM MBED, FIG. 6), the “stimulation of insulin secretion from islets” value was “persistently stimulated both the first- and second-phases of insulin secretion”.
